Test results published in ChEMBL document CHEMBL1201862, “PubChem BioAssay data set” (2004).
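Cells were grown in 96-well plates and exposed to each compound for 48 hours at five concentrations; endpoints were interpolated linearly between bracketing concentrations, or set to the highest concentration if not reached. GI50 = concentration required for 50% inhibition of growth.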 Calls of active or inactive are those of the source. Cut-off read from the data, not from the text of the source: active = GI50 up to about 1.1 µM and inactive = higher.

How the values were obtained:
Test in all cases: DTP human tumour cell line panel, 48 h
HCC 2998 = tested on: HCC 2998
NCI/ADR-RES = tested on: NCI/ADR-RES
A549 = tested on: A549
HCT-116 = tested on: HCT-116
786-0 = tested on: 786-0
M14 = tested on: M14
COLO 205 = tested on: COLO 205
U-251 = tested on: U-251
HL-60 = tested on: HL-60
RPMI-8226 = tested on: RPMI-8226
NCI-H460 = tested on: NCI-H460
MDA-MB-435 = tested on: MDA-MB-435
DU-145 = tested on: DU-145
NCI-H226 = tested on: NCI-H226
MDA-MB-231 = tested on: MDA-MB-231
SK-MEL-28 = tested on: SK-MEL-28
ACHN = tested on: ACHN
CCRF-CEM = tested on: CCRF-CEM
PC-3 = tested on: PC-3
SF-268 = tested on: SF-268

Row | Structure (SMILES) | GI50 (HCC 2998) | GI50 (NCI/ADR-RES) | GI50 (A549) | GI50 (HCT-116) | GI50 (786-0) | GI50 (M14) | GI50 (COLO 205) | GI50 (U-251) | GI50 (HL-60) | GI50 (RPMI-8226) | GI50 (NCI-H460) | GI50 (MDA-MB-435) | GI50 (DU-145) | GI50 (NCI-H226) | GI50 (MDA-MB-231) | GI50 (SK-MEL-28) | GI50 (ACHN) | GI50 (CCRF-CEM) | GI50 (PC-3) | GI50 (SF-268)
1 | CN(C)CCNc1ccc(C(=O)NCCCN(C)CCCNC(=O)c2ccc(NCCN(C)C)c3c(=O)c4ccccc4[nH]c23)c2[nH]c3ccccc3c(=O)c12 | 0.0246 µM (active) | 5.08 µM (inactive) | < 0.01 µM (active) | < 0.01 µM (active) | < 0.0119 µM (active) | 0.218 µM (active) | 0.0163 µM (active) | < 0.01 µM (active) | 0.155 µM (active) | < 0.01 µM (active) | < 0.0163 µM (active) | 0.032 µM (active) | < 0.0134 µM (active) | 0.0199 µM (active) | 0.024 µM (active) | 0.109 µM (active) | 0.0402 µM (active) | < 0.01 µM (active) | 0.0783 µM (active) | < 0.01 µM (active)
2 | COc1ccc(C(=O)N2CCN(c3ccc4[nH]c(=O)oc4c3)CC2)cc1 | > 100 µM (inactive) | > 100 µM (inactive) | > 100 µM (inactive) | > 100 µM (inactive) | > 100 µM (inactive) | > 100 µM (inactive) | > 100 µM (inactive) | > 100 µM (inactive) | 39.4 µM (inactive) | > 100 µM (inactive) | > 100 µM (inactive) | > 100 µM (inactive) | > 100 µM (inactive) | > 100 µM (inactive) | > 100 µM (inactive) | > 100 µM (inactive) | 69.8 µM (inactive) | > 100 µM (inactive) | > 100 µM (inactive) | > 100 µM (inactive)
3 | CC1=CC(=O)/C(=C/NC(=S)C(N)=S)C(=O)O1 | > 100 µM (inactive) | > 100 µM (inactive) | > 100 µM (inactive) | > 100 µM (inactive) | > 100 µM (inactive) | > 100 µM (inactive) | > 100 µM (inactive) | > 100 µM (inactive) | 47.5 µM (inactive) | > 100 µM (inactive) | > 100 µM (inactive) | > 100 µM (inactive) | > 100 µM (inactive) | > 100 µM (inactive) | > 100 µM (inactive) | > 100 µM (inactive) | > 100 µM (inactive) | 44 µM (inactive) | > 100 µM (inactive) | > 100 µM (inactive)
4 | Cc1nc(O)nc2nc3ccc(Cl)cc3c(N(CCO)CCO)c12 | > 100 µM (inactive) | > 100 µM (inactive) | > 100 µM (inactive) | > 100 µM (inactive) | > 100 µM (inactive) | > 100 µM (inactive) | > 100 µM (inactive) | > 100 µM (inactive) | > 100 µM (inactive) | 52.6 µM (inactive) | 48.2 µM (inactive) | > 100 µM (inactive) | > 100 µM (inactive) | 26.8 µM (inactive) | 39 µM (inactive) | > 100 µM (inactive) | > 100 µM (inactive) | > 100 µM (inactive) | > 100 µM (inactive) | > 100 µM (inactive)
5 | Cc1ccc(SCC(OCn2cnc3c(N)ncnc32)[C@H](C)F)cc1 (stereo not given in full) | > 100 µM (inactive) | 73.1 µM (inactive) | > 100 µM (inactive) | > 100 µM (inactive) | > 100 µM (inactive) | > 100 µM (inactive) | > 100 µM (inactive) | > 100 µM (inactive) | > 100 µM (inactive) | > 100 µM (inactive) | > 100 µM (inactive) | > 100 µM (inactive) | > 100 µM (inactive) | > 100 µM (inactive) | > 100 µM (inactive) | > 100 µM (inactive) | > 100 µM (inactive) | > 100 µM (inactive) | > 100 µM (inactive) | > 100 µM (inactive)
6 | C/C(=C/C(=O)Nn1c(Cc2ccccc2)n[nH]c1=O)C(=O)O | > 100 µM (inactive) | > 100 µM (inactive) | > 100 µM (inactive) | > 100 µM (inactive) | > 100 µM (inactive) | > 100 µM (inactive) | > 100 µM (inactive) | > 100 µM (inactive) | > 100 µM (inactive) | > 100 µM (inactive) | > 100 µM (inactive) | > 100 µM (inactive) | > 100 µM (inactive) | > 100 µM (inactive) | > 100 µM (inactive) | > 100 µM (inactive) | > 100 µM (inactive) | > 100 µM (inactive) | > 100 µM (inactive) | > 100 µM (inactive)
7 | c1cc2ccc3cc4ncccc4c4ccc(c1)c2c34 | 25.6 µM (inactive) | 31.6 µM (inactive) | 9.31 µM (inactive) | 12 µM (inactive) | 18.8 µM (inactive) | 71.6 µM (inactive) | 9.82 µM (inactive) | 17.9 µM (inactive) | 33.2 µM (inactive) | 10.1 µM (inactive) | 5.05 µM (inactive) | 40.4 µM (inactive) | 57.4 µM (inactive) | 17.5 µM (inactive) | 20.8 µM (inactive) | 43.1 µM (inactive) | 6.87 µM (inactive) | 19.7 µM (inactive) | 33 µM (inactive) | 30.7 µM (inactive)
8 | O=C(O)c1cnccc1-c1cc(=O)[nH]n1-c1ccccc1 | 25 µM (inactive) | 27.6 µM (inactive) | 48.9 µM (inactive) | 51.8 µM (inactive) | > 79.6 µM (inactive) | 10.8 µM (inactive) | 16 µM (inactive) | > 100 µM (inactive) | 20.9 µM (inactive) | 48 µM (inactive) | 35 µM (inactive) | 46 µM (inactive) | > 53.1 µM (inactive) | > 100 µM (inactive) | > 100 µM (inactive) | > 43.4 µM (inactive) | 35.8 µM (inactive) | 34.4 µM (inactive) | 16.3 µM (inactive) | > 83.2 µM (inactive)
9 | COc1ccc(/C=C2/C(=O)N(/C=C3\C(=O)Oc4ccccc4C3=O)/C(=N/C(C)=O)N2C)cc1OC | > 100 µM (inactive) | > 100 µM (inactive) | > 100 µM (inactive) | > 100 µM (inactive) | > 100 µM (inactive) | > 100 µM (inactive) | > 100 µM (inactive) | > 100 µM (inactive) | > 100 µM (inactive) | > 100 µM (inactive) | > 100 µM (inactive) | > 100 µM (inactive) | > 100 µM (inactive) | > 100 µM (inactive) | > 100 µM (inactive) | > 100 µM (inactive) | > 100 µM (inactive) | > 100 µM (inactive) | > 100 µM (inactive) | > 100 µM (inactive)
10 | NC(=O)c1cccc(/N=c2\oc3ccc(Br)cc3cc2-c2nc3ccccc3[nH]2)c1 | 15.3 µM (inactive) | 12.1 µM (inactive) | 13.1 µM (inactive) | 16.4 µM (inactive) | 14.5 µM (inactive) | 15.7 µM (inactive) | 14.6 µM (inactive) | 13.2 µM (inactive) | 18.1 µM (inactive) | 5.87 µM (inactive) | 15.5 µM (inactive) | 15.1 µM (inactive) | 15.5 µM (inactive) | 0.075 µM (active) | 7.55 µM (inactive) | > 100 µM (inactive) | 17.3 µM (inactive) | 2.61 µM (inactive) | 14.3 µM (inactive) | 15.1 µM (inactive)
